From publication PMC11237694, “Novel pentafluorosulfanyl-containing triclocarban analogs selectively kill Gram-positive bacteria” (Microbiology Spectrum, 2024)
In brackets after ≈: the same amount, converted by molar mass. Where two headings read alike, the source gives them in different places.

Assays:
MT4 cells = test: Eukaryotic cell toxicity; assay type: cell-based, Human; details: 4 days
Method: (§1) Five eukaryotic cell lines were used to determine the cytotoxicity of the compounds: human embryonic lung (HEL) fibroblast cells, human cervixcarinoma-derived HeLa cells, human T-cell leukemia-derived MT4 cells, MDCK cells, and African Green monkey kidney-derived VERO cells. Semi-confluent cell cultures in 96-well plates were exposed to serial dilutions of the compounds or to medium (= no compound control), then incubated at 37°C. Four days later, the cells were inspected by microscopy to determine the MCC, that is, compound concentration that causes a microscopically detectable alteration of normal cell morphology. Next, the MTS cell viability reagent (CellTiter 96 AQueous MTS Reagent from Promega) was added. After 4 hours of incubation at 37°C, OD at 490 nm was recorded in a microplate reader.

[1] = system: Staphylococcus aureus ATCC 25923; test: Planktonic susceptibility (MIC/MBC), 96-well broth microdilution; assay type: cell-based; details: S. aureus; for MBC / MIC: Staphylococcus aureus, ATCC25923; for MIC: planktonic, overnight 37°C in MHB
Method: (§2) All bacterial strains subjected to testing had been stored at −70°C prior to the experiment. The experiment commenced by streaking small amounts of the frozen bacterial samples onto Muller-Hinton agar (MHA) culture medium (BD Bacto, Oxoid, Basingstoke, UK Cat# X296B) and allowing for overnight incubation. Bacteria were re-cultured on MHA plates as required to confirm colony morphology and lack of contamination. Strains tested were P. aeruginosa ATCC 27853, E. coli ATCC 25922, Staphylococcus aureus ATCC 25923, MRSA ATCC 33591, S. epidermidis ATCC 12228, Klebsiella pneumoniae ATCC, P. mirabilis ATCC 35659, and 10 clinical isolates of MRSA from Foothills Hospital, Calgary, Canada. To prepare for susceptibility testing, a protocol modified from Lemire et al was used ([28]). MHB was swab-inoculated from MHA colonies and shake-incubated until turbid. Dilution of the broth with 0.9% saline was performed as necessary to match a 1.0 McFarland standard.
(§3) MIC and MBC assessments were conducted on all bacterial strains using 96-well microtiter plates. To prepare the wells for bacteria, serial dilutions of the antibacterial agents were carried out along the rows of two microtiter plates. The antibacterials were 2-fold diluted with Mueller-Hinton broth (MHB) in each column, reaching a volume of 75 µL. The 1.0 McFarland standard was diluted 15-fold in MHB, and 75 µL of inoculum was added to the wells treated with antibacterials, resulting in a total volume of 150 µL. The microtiter plates were covered and then shake-incubated overnight at 150 rpm and 37°C. MIC was determined based on visible bacterial growth. In cases of antibacterial opacity or ambiguous results, streaking of well cultures on MHA, overnight incubation, and subsequent comparison with controls were performed. MBC was determined by transferring 3 µL of culture from all MIC microtiter plate wells to 147 µL of Mueller-Hinton broth in fresh plates. These plates were shake-incubated overnight at 150 rpm and 37°C, and bacterial growth was visually inspected.

P. mirabilis ATCC 35659 = test: as above; assay type: cell-based; details: Proteus mirabilis; for MBC: ATCC35659; for MIC: ATCC35659, planktonic, overnight 37°C in MHB
Method: as §2, §3

[2] = system: Klebsiella pneumoniae ATCC; test: as above; assay type: cell-based; details: K. pneumonia; for MIC: planktonic, overnight 37°C in MHB
Method: as §2, §3

MRSA = test: Membrane permeability, propidium iodide staining; assay type: cell-based, methicillin-resistant S. aureus; details: Gram-positive MRSA; MIC concentration, 1 hour
Method: (§4) For assessing membrane permeability, PI (Invitrogen, Eugene, Oregon, USA) served as the fluorescent reporter dye. Increased PI fluorescence readings are indicative of heightened membrane disruption and permeability, as PI can penetrate cells, bind to DNA, and remain within the cells ([29], [30]). Bacteria were cultured in 3 mL of Mueller-Hinton broth (MHB) and incubated at 37°C for approximately 3 hours in a shaker incubator (150 rpm) until reaching an OD600 (optical density) of 0.08. […] All treated and control groups were incubated at 37°C for 1 hour in a shaker incubator (150 rpm). Ciprofloxacin and gentamycin were employed as internal controls, as they are known not to target the bacterial cell membrane in the initial steps. After incubation, the samples were centrifuged, washed with PBS (10,000 × g for 2 minutes), and bacteria were stained with 0.08 mM PI for 5 minutes at 21°C in the dark. Subsequently, 10 µL of samples were transferred onto slides and examined under a fluorescence microscope (Zeiss Axio Imager Z1) using the same exposure time (640 ms red and 1 s green). Densitometry analysis was conducted using Fiji software (ImageJ).

P. aeruginosa = test: Membrane permeability, propidium iodide staining; assay type: cell-based, Pseudomonas aeruginosa; details: Gram-negative P. aeruginosa; MIC concentration, 1 hour
Method: as §4

MRSA ATCC 33591 = test: Planktonic susceptibility (MIC/MBC), 96-well broth microdilution; assay type: cell-based, methicillin-resistant S. aureus; details: for antibacterial efficacy (in words): MRSA spp.; for MBC / MIC: Staphylococcus aureus, MRSA reference strain; for MIC: planktonic, overnight 37°C in MHB
Method: as §2
as §3, with “In cases of antibacterial opacity or ambiguous results, streaking of well cultures on MHA, overnight incubation, and subsequent comparison with controls were performed.” left out

MDCK cells = test: Eukaryotic cell toxicity, MTS assay (CC50); assay type: cell-based, canine; details: for cytotoxicity level lower than that of EPB-34: MDCK cells; for CC50: MTS assay, 4 days, mean of 2 or 3 determinations, read-out: MDCK (CC50) in vitro cytotoxicity
Method: as §1

[3] = Eukaryotic cell toxicity, MTS assay (CC50); assay type: cell-based; details: African green monkey, Vero cells, mean of 2 or 3 determinations, read-out: Vero (CC50) in vitro cytotoxicity
Method: as §1

[4] = system: 10 clinical isolates of MRSA from Foothills Hospital, Calgary; test: Planktonic susceptibility (MIC/MBC) of MRSA clinical isolates; assay type: cell-based, methicillin-resistant S. aureus; details: Staphylococcus aureus
Method: as §2
as §3, with “In cases of antibacterial opacity or ambiguous results, streaking of well cultures on MHA, overnight incubation, and subsequent comparison with controls were performed.” left out

Compound	MT4 (MCC) in vitro cytotoxicity (MT4 cells)	antibacterial efficacy (in words) [1]	MBC [1]	MIC [1]	MBC (P. mirabilis ATCC 35659)	MIC (P. mirabilis ATCC 35659)	MBC [2]	MIC [2]	antibacterial efficacy (in words) (MRSA ATCC 33591)	MBC (MRSA ATCC 33591)	MIC (MRSA ATCC 33591)	CC50 at 4 days [3]	MBC ([4]; MRSA #1 clinical isolate)	MIC ([4]; MRSA #1 clinical isolate)	MBC ([4]; MRSA #2 clinical isolate)	MIC ([4]; MRSA #2 clinical isolate)	MBC ([4]; MRSA #3 clinical isolate)	MIC ([4]; MRSA #3 clinical isolate)	MBC ([4]; MRSA #4 clinical isolate)	MIC ([4]; MRSA #4 clinical isolate)	also measured
O=C(Nc1ccc(S(F)(F)(F)(F)F)cc1)Nc1ccc(Cl)c(Cl)c1 [EBP-59]	3.9 µM	effective	6.1 µM (≈ 2.48 µg/mL)	< 0.3 µM	2 µM (≈ 0.814 µg/mL)	2 µM (≈ 0.814 µg/mL)	> 5 mM	> 5 mM	effective	20 µM (≈ 8.14 µg/mL)	2.4 µM (≈ 0.977 µg/mL)	> 4 µM	5 µM (≈ 2.04 µg/mL)	< 2 µM	< 2 µM	< 2 µM	< 2 µM	< 2 µM	5 µM (≈ 2.04 µg/mL)	< 2 µM	cell membrane disruption (PI staining) (MRSA): effective at cell membrane disruption; effect on cell membrane (PI staining) (P. aeruginosa): no effect; cytotoxicity level lower than that of EPB-34 (MDCK cells): 2 logs; CC50 (MDCK cells): > 100 µM; MBC ([4]; MRSA #5 clinical isolate): 10 µM (≈ 4.07 µg/mL); MIC ([4]; MRSA #5 clinical isolate): < 2 µM; MBC ([4]; MRSA #6 clinical isolate): < 2 µM; MIC ([4]; MRSA #6 clinical isolate): < 2 µM; MBC ([4]; MRSA #7 clinical isolate): < 2 µM; MIC ([4]; MRSA #7 clinical isolate): < 2 µM; MBC ([4]; MRSA #8 clinical isolate): 5 µM (≈ 2.04 µg/mL); MIC ([4]; MRSA #8 clinical isolate): < 2 µM; MBC ([4]; MRSA #9 clinical isolate): 20 µM (≈ 8.14 µg/mL); MIC ([4]; MRSA #9 clinical isolate): < 2 µM; MBC ([4]; MRSA #10 clinical isolate): 40 µM (≈ 16.3 µg/mL); MIC ([4]; MRSA #10 clinical isolate): < 2 µM
O=C(Nc1ccc(Cl)cc1)Nc1ccc(S(F)(F)(F)(F)F)cc1 [EPB-61, 1-(4-Chlorophenyl)-3-(4-(pentafluoro-λ^6-sulfanyl)phenyl)urea]	2.8 µM	effective	95 µM (≈ 35.4 µg/mL)	9.5 µM (≈ 3.54 µg/mL)	> 5000 µM	> 5000 µM	> 5 mM	> 5 mM	effective	300 µM (≈ 112 µg/mL)	160 µM (≈ 59.6 µg/mL)	> 4 µM	40 µM (≈ 14.9 µg/mL)	< 2 µM	10 µM (≈ 3.73 µg/mL)	< 2 µM	10 µM (≈ 3.73 µg/mL)	< 2 µM	20 µM (≈ 7.45 µg/mL)	< 2 µM	cell membrane disruption (PI staining) (MRSA): effective at cell membrane disruption; effect on cell membrane (PI staining) (P. aeruginosa): no effect; cytotoxicity level lower than that of EPB-34 (MDCK cells): 2 logs; CC50 (MDCK cells; listed as EBP-61): > 100 µM; MBC ([4]; MRSA #5 clinical isolate): 40 µM (≈ 14.9 µg/mL); MIC ([4]; MRSA #5 clinical isolate): < 2 µM; MBC ([4]; MRSA #6 clinical isolate): 20 µM (≈ 7.45 µg/mL); MIC ([4]; MRSA #6 clinical isolate): < 2 µM; MBC ([4]; MRSA #7 clinical isolate): 20 µM (≈ 7.45 µg/mL); MIC ([4]; MRSA #7 clinical isolate): < 2 µM; MBC ([4]; MRSA #8 clinical isolate): 40 µM (≈ 14.9 µg/mL); MIC ([4]; MRSA #8 clinical isolate): < 2 µM; MBC ([4]; MRSA #9 clinical isolate): 40 µM (≈ 14.9 µg/mL); MIC ([4]; MRSA #9 clinical isolate): < 2 µM; MBC ([4]; MRSA #10 clinical isolate): 20 µM (≈ 7.45 µg/mL); MIC ([4]; MRSA #10 clinical isolate): < 2 µM
O=C(Nc1ccc(Cl)cc1)Nc1cccc(S(F)(F)(F)(F)F)c1 [EBP-62, 1-(4-chlorophenyl)-3-(3-(pentafluoro-λ^6-sulfanyl)phenyl)urea]	4.7 µM	effective	300 µM (≈ 112 µg/mL)	0.3 µM (≈ 0.112 µg/mL)	> 5000 µM	> 5000 µM	> 5 mM	> 5 mM	effective	76 µM (≈ 28.3 µg/mL)	38 µM (≈ 14.2 µg/mL)	> 4 µM	80 µM (≈ 29.8 µg/mL)	< 2 µM	5 µM (≈ 1.86 µg/mL)	< 2 µM	< 2 µM	< 2 µM	20 µM (≈ 7.45 µg/mL)	< 2 µM	MBC ([4]; MRSA #5 clinical isolate): 20 µM (≈ 7.45 µg/mL); MIC ([4]; MRSA #5 clinical isolate): < 2 µM; MBC ([4]; MRSA #6 clinical isolate): 5 µM (≈ 1.86 µg/mL); MIC ([4]; MRSA #6 clinical isolate): < 2 µM; MBC ([4]; MRSA #7 clinical isolate): 10 µM (≈ 3.73 µg/mL); MIC ([4]; MRSA #7 clinical isolate): 5 µM (≈ 1.86 µg/mL); MBC ([4]; MRSA #8 clinical isolate): 80 µM (≈ 29.8 µg/mL); MIC ([4]; MRSA #8 clinical isolate): 5 µM (≈ 1.86 µg/mL); MBC ([4]; MRSA #9 clinical isolate): 40 µM (≈ 14.9 µg/mL); MIC ([4]; MRSA #9 clinical isolate): < 2 µM; MBC ([4]; MRSA #10 clinical isolate): 80 µM (≈ 29.8 µg/mL); MIC ([4]; MRSA #10 clinical isolate): 5 µM (≈ 1.86 µg/mL)
